# ChEMBL document CHEMBL5291721, “A preclinical secondary pharmacology resource illuminates target-adverse drug reaction associations of marketed drugs” (Nat Commun, 2023)
# Key:
# Estrogen receptor = molecular target: T1, Estrogen receptor (Homo sapiens, UniProt P03372)
# T1 sequence (P03372 whole entry): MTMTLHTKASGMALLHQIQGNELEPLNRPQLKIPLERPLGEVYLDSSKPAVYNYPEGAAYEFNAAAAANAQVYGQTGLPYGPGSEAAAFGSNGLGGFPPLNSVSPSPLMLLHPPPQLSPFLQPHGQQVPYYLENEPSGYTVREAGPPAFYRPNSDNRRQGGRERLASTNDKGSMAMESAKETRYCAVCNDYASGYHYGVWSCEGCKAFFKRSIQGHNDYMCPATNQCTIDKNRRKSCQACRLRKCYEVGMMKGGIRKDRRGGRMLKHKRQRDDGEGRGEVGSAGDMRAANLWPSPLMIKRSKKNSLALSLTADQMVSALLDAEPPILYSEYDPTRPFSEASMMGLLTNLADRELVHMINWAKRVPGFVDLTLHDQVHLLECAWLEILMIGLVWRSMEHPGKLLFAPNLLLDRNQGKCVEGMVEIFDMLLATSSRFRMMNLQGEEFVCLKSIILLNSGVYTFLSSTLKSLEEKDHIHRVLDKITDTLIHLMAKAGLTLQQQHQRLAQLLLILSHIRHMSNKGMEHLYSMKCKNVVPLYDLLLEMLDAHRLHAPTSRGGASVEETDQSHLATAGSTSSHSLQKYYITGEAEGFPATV
# Androgen receptor = molecular target: T2, Androgen receptor (Rattus norvegicus, UniProt P15207)
# T2 sequence (P15207 whole entry): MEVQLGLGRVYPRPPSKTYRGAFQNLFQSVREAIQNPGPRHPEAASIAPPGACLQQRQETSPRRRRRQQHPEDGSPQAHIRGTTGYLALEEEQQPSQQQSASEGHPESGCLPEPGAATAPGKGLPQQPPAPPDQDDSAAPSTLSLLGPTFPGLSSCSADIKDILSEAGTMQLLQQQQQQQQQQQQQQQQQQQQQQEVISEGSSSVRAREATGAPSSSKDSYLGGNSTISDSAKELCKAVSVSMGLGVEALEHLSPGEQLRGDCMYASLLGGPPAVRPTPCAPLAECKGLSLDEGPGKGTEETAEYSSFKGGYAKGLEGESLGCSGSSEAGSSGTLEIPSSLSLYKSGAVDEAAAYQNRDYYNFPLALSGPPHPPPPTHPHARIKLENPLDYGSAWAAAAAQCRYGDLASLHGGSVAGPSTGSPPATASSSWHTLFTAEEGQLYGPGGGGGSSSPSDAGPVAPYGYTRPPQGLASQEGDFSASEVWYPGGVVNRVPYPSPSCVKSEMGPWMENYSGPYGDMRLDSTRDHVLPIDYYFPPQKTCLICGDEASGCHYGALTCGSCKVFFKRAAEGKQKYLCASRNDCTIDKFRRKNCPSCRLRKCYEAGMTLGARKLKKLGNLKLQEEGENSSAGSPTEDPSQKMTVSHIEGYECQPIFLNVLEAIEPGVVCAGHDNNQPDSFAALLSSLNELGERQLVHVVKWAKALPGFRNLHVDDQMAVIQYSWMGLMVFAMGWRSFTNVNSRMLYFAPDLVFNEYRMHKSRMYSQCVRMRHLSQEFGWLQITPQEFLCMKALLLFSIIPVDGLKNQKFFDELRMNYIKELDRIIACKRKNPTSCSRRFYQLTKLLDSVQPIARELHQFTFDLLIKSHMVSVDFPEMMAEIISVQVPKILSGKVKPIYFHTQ
# [1] = molecular target: Beta-3 adrenergic receptor (Homo sapiens, UniProt P13945)
# [2] = molecular target: Voltage-dependent N-type calcium channel subunit alpha-1B (Rattus norvegicus, UniProt Q02294); type: functional
# [3] = molecular target: T3, Alpha-2A adrenergic receptor (Homo sapiens, UniProt P08913)
# T3 sequence (P08913 whole entry): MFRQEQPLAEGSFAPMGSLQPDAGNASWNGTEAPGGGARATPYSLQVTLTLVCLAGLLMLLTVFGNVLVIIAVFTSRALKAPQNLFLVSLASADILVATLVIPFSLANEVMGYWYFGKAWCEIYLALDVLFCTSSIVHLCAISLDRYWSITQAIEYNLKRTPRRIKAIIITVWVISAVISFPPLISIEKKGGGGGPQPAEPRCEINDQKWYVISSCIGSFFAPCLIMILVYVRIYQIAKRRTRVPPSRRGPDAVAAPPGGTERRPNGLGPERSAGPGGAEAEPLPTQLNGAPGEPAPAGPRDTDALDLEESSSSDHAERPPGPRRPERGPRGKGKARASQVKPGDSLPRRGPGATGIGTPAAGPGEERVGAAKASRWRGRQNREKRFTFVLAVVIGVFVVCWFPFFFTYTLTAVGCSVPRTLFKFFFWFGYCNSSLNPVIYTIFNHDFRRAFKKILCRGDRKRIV
# Progesterone receptor = molecular target: T4, Progesterone receptor (Homo sapiens, UniProt P06401)
# T4 sequence (P06401 whole entry): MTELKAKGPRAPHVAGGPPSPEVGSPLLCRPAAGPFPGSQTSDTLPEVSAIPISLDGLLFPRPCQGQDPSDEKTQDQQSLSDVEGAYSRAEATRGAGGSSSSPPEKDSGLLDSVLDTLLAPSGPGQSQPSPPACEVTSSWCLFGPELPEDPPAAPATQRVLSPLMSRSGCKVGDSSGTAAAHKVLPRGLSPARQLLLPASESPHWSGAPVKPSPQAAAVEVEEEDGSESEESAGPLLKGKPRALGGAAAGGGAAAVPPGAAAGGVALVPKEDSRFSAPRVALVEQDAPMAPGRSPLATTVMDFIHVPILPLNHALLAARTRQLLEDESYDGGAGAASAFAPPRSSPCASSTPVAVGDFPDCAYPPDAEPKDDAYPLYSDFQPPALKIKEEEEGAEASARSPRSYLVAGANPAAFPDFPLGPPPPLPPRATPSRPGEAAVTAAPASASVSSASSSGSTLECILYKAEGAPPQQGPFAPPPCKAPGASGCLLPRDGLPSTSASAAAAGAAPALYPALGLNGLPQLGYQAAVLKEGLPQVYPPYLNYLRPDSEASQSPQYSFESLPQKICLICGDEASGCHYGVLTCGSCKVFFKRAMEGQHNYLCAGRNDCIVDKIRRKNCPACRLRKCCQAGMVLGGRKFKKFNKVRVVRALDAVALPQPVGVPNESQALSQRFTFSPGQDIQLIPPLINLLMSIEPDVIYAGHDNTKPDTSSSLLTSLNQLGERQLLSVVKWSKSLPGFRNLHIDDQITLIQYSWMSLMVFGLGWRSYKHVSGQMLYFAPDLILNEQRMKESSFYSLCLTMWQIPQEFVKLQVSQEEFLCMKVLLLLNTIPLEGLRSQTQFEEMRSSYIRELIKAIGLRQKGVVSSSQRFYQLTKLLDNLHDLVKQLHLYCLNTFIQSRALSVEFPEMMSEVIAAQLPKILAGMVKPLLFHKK
# Further: assay procedure not described here.
# Chain of Beta-3 adrenergic receptor (P13945 whole entry): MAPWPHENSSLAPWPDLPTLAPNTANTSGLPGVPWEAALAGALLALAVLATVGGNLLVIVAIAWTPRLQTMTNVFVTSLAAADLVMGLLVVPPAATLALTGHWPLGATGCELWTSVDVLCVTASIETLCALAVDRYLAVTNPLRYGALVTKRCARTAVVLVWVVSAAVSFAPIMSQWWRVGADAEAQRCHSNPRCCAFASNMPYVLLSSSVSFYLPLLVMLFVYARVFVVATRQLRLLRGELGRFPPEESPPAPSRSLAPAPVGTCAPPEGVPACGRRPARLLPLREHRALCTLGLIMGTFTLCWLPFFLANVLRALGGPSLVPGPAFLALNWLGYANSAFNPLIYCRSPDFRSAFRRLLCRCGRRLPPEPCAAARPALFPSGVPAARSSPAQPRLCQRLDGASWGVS
# Chain of Voltage-dependent N-type calcium channel subunit alpha-1B (Q02294 whole entry): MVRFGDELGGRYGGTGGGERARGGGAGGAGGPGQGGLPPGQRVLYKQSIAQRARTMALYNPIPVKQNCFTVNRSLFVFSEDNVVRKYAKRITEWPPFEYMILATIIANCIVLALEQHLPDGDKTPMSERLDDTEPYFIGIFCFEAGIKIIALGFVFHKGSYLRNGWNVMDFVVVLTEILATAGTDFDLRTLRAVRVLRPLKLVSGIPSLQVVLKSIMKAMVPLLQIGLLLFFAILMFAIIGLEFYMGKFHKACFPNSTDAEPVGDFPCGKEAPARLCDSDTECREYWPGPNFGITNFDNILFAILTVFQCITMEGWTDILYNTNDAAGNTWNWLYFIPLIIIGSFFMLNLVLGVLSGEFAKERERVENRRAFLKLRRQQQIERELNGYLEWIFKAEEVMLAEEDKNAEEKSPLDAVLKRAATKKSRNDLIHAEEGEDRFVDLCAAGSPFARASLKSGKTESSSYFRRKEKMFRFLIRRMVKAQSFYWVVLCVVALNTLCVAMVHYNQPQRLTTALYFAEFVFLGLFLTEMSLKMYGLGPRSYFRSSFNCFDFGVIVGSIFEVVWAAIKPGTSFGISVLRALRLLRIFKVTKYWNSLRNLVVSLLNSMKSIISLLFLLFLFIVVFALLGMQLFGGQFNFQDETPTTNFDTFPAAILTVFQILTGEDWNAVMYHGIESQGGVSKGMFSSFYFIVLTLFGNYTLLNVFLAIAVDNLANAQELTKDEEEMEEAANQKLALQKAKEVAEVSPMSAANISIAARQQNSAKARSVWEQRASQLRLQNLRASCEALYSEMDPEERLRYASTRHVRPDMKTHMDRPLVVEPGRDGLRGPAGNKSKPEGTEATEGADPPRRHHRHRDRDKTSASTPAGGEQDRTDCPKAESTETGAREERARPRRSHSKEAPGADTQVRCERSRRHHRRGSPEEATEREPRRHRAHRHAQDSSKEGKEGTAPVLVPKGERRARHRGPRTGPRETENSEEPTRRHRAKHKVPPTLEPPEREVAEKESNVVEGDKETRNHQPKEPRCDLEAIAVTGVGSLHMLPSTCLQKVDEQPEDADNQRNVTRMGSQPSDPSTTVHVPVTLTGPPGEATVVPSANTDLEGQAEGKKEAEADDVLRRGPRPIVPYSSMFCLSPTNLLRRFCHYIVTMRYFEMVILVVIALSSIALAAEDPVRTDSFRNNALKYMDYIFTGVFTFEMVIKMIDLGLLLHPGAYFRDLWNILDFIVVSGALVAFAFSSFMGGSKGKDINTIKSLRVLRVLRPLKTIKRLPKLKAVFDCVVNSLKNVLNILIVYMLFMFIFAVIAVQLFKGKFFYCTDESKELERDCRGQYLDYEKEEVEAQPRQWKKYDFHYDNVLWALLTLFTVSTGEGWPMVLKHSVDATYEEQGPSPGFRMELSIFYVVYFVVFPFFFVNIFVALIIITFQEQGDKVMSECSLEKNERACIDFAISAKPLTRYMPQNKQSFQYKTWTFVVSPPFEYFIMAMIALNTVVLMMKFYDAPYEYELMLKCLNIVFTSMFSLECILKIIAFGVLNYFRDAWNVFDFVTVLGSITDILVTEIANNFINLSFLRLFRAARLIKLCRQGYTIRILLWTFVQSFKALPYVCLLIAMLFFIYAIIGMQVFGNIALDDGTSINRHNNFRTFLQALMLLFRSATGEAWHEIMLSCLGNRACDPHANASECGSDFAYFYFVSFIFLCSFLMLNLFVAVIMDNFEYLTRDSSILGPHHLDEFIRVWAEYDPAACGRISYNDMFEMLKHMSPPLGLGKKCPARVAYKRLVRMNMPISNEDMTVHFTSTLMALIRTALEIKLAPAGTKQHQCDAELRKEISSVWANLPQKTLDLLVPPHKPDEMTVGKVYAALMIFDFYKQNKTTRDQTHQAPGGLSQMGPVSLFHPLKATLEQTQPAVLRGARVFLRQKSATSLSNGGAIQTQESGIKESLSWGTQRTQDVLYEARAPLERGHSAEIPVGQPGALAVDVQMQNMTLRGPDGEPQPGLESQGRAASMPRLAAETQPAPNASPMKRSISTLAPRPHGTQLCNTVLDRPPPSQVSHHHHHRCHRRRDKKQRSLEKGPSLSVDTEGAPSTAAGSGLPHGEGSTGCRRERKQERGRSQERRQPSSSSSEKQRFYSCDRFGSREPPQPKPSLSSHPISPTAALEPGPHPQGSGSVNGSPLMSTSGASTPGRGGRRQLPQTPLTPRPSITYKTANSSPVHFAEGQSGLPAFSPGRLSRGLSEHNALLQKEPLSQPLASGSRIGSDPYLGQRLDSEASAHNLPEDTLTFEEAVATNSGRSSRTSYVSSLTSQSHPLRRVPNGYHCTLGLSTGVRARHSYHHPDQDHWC
Structure (SMILES),AC50 (Estrogen receptor),AC50 (Androgen receptor),AC50 [1],AC50 [2],AC50 [3],AC50 (Progesterone receptor)
O=C1C(O)=C([C@H]2CC[C@H](c3ccc(Cl)cc3)CC2)C(=O)c2ccccc21 [ATOVAQUONE],> 30 µM,,,,,
COc1ccc(CCNCC(O)COc2cccc(C)c2)cc1OC (stereo not drawn) [BEVANTOLOL],> 10 µM,> 10 µM,,,,
CC(C)(C)NCC(O)COc1cccc2c1CCC(=O)N2 (stereo not drawn) [CARTEOLOL],,> 10 µM,,,,
Clc1ccccc1C(c1ccccc1)(c1ccccc1)n1ccnc1 [CLOTRIMAZOLE],,,8.78 µM,> 10 µM,,
NC(=O)OCC(COC(N)=O)c1ccccc1 [FELBAMATE],> 10 µM,> 10 µM,,,,
Fc1ccc(C(c2ccccc2)(c2ccccc2F)n2ccnc2)cc1 (stereo not drawn) [FLUTRIMAZOLE],> 30 µM,,,,,
Cc1c(OCC(F)(F)F)ccnc1C[S+]([O-])c1nc2ccccc2[nH]1 (stereo not drawn) [LANSOPRAZOLE],,,> 30 µM,> 10 µM,> 10 µM,> 30 µM
CC/C(=C(\c1ccccc1)c1ccc(OCCN(C)C)cc1)c1ccccc1 [TAMOXIFEN],,,6.61 µM,> 10 µM,> 10 µM,
COc1cccc(C2(O)CCCCC2CN(C)C)c1 (stereo not drawn) [TRAMADOL],> 30 µM,> 30 µM,> 30 µM,> 10 µM,> 10 µM,> 30 µM
Cc1nnc2n1-c1ccc(Cl)cc1C(c1ccccc1Cl)=NC2 [TRIAZOLAM],,,,,,> 30 µM
